We go through 24 molecules from patent publication US9951040B2, “1,3,5 -triazine based PI3K inhibitors as anticancer agents and a process for the preparation thereof” (Council of Scientific and Industrial Research, priority 2014, dated 2018).

Read-outs that look alike come from different tables or passages of the source.

One test has as its target PI3K alpha (Homo sapiens, UniProt P42336). The test can be described thus: PI3K-α assay (ADP-Glo enzyme inhibition). Format: biochemical. The conditions noted are these: at 500 nm. The protocol:
Compounds were evaluated for their ability to inhibit class I PI3-kinase enzyme alpha as given below. PI3K-α Assay: PI3K alpha (diluted in 12.5 mM Glycine-NaOH (pH 8.5), 50 mM KCl, 2.5 mM MgCl2, 1 mM DTT, 0.05% CHAPS) is assayed in total volume of 20 ul containing 12.5 mM glycine-NaOH (pH 8.5), 50 mM KCl, 2.5 mM MgCl2, 1 mM DTT, 0.05% CHAPS, 0.01 mM ATP and 0.05 mM diC8 PIP2. The enzyme is assayed for 80 min after which 20 ul of ADP-Glo reagent is added. After a further incubation of 40 min, 40 ul of Kinase Detection Buffer is added. The assays are incubated for 40 min and then read on PerkinElmer Envision for 1 sec/well.
On the technique in general: ADP-Glo first removes unused ATP, then detects ADP through luciferase.

A further test has as its system MCF-7 Cell line. Kind of test: MTT cell proliferation assay, MCF-7. In kind it is cell-based. The conditions noted are these: Homo sapiens, MCF7, 120 h, 5 days. The protocol: (§1) Human breast cancer cell lines MDAMB231, MFC-7 and human prostate carcinoma cell line PC-3 were obtained from European Collection of Cell Cultures (ECACC). Cells were grown in […] medium supplemented with 10% fetal bovine serum (FBS), penicillin (100 units/ml), streptomycin (100 μg/ml), L-glutamine (0.3 mg/ml), sodium pyruvate ([…]), and NaHCO3 (2 mg/ml). Cells were grown in CO2 incubator (Thermocon Electron Corporation, USA) at 37° C. in an atmosphere of 95% air and 5% CO2 with 98% humidity. Different molecules were dissolved in DMSO and were delivered to cell cultures in complete medium.
(§2) MTT assay was done to determine the viability of the cells and was done as described previously (Kumar et al, 2013). Briefly, 6×10^3 were seeded in 96 well plates and were treated with different concentrations of different molecules for 5 days. 20 μl of MTT dye (2.5 mg/ml) was added 3 h before the termination of the experiment. Formazen crystals were dissolved in 150 μl of DMSO and OD was measured at 570 nm.
For orientation: Formazan colour is commonly taken as a measure of viable cells.

A further test has as its system PC-3 Cell line. The test can be described thus: MTT cell proliferation assay, PC-3. Format: cell-based. Conditions: Homo sapiens, PC-3, 120 h, 5 days. The procedure:
as §1, §2

[1] abbreviates: read-out: In vitro PI3K α % of inhibition.
The mark [2] stands for this setting: read-out: inhibition against PI3K alpha.

A word on the inhibition: it is the drop in the measured response relative to a control, in per cent.

PI3K alpha, sequence (P42336 whole entry, species assumed): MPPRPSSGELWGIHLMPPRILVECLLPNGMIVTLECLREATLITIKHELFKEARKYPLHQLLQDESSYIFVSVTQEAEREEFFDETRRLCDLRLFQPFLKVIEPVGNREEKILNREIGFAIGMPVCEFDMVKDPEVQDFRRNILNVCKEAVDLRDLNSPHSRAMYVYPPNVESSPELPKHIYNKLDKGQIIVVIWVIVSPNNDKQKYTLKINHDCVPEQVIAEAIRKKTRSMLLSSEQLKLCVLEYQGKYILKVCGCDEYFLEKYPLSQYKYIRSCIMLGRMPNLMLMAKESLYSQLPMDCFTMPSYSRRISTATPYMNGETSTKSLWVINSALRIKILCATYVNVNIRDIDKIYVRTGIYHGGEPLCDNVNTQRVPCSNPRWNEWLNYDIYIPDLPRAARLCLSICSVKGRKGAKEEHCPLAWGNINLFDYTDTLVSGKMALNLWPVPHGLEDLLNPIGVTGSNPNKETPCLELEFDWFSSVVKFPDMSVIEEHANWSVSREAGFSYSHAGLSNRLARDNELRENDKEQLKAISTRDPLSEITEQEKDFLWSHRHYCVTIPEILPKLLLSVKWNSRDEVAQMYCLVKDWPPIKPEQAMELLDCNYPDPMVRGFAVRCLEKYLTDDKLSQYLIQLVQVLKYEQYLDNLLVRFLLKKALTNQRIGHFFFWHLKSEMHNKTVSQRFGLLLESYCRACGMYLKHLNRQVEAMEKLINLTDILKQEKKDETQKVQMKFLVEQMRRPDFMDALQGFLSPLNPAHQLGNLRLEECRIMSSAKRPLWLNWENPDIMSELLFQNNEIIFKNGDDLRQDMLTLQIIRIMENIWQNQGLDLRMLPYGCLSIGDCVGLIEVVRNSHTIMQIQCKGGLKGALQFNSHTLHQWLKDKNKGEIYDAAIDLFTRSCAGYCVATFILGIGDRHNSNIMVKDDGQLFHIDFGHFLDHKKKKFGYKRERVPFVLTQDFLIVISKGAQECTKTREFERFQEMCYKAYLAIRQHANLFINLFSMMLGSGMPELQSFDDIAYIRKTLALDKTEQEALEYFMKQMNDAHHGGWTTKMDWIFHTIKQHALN
PI3K alpha, sequence (P27986 whole entry partner, species assumed): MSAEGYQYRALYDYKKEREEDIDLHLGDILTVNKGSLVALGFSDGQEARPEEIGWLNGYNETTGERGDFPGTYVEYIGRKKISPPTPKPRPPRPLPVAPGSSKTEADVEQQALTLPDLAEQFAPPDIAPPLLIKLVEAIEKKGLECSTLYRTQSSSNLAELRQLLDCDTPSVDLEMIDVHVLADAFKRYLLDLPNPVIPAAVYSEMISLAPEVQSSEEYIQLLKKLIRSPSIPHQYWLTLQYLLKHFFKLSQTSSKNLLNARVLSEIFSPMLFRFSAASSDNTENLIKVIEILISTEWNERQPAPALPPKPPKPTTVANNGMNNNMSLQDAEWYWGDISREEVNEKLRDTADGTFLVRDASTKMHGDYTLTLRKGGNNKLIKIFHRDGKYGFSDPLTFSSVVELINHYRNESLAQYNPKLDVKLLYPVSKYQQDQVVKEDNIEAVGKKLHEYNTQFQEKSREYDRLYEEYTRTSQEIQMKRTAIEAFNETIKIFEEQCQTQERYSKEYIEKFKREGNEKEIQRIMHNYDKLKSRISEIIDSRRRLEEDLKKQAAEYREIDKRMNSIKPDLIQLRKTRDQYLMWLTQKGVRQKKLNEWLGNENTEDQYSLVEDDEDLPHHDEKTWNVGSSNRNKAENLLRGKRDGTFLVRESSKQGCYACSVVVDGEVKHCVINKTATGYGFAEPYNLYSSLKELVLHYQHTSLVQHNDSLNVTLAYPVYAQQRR

On to `Fc1ccc(N(c2ccncc2C(F)(F)F)C2CCN(c3nc(N4CCOCC4)nc(-n4c(C(F)F)nc5ccccc54)n3)CC2)cc1` [1B45, N-(1-(4-(2-(difluoromethyl)-1H-benzo[d]imidazol-1-yl)-6-morpholino-1,3,5-triazin-2-yl)piperidin-4-yl)-N-(4-fluorophenyl)-3-(trifluoromethyl)pyridin-4-amine], for which the inhibition at 0.5 µM at PI3K alpha (setting [1]) fell in the range of 50 to 70%. Consider `Fc1ccccc1OC1CCN(c2nc(N3CCOCC3)nc(-n3c(C(F)F)nc4ccccc43)n2)CC1` [1B9, 4-(4-(2-(difluoromethyl)-1H-benzo[d]imidazol-1-yl)-6-(4-(2-fluorophenoxy)piperidin-1-yl)-1,3,5-triazin-2-yl)morpholine], for which the inhibition at 0.5 µM on PI3K alpha (setting [1]) was in the range of 50 to 70%. As for `Fc1ccc(NC2CCN(c3nc(N4CCOCC4)nc(-n4c(C(F)F)cc5ccccc54)n3)CC2)cc1` [1B46, 1-(4-(2-(difluoromethyl)-1H-indol-1-yl)-6-morpholino-1,3,5-triazin-2-yl)-N-(4-fluorophenyl)piperidin-4-amine], the inhibition at 0.5 µM at PI3K alpha (setting [1]) fell in the range of 50 to 70%.

With `FC(F)c1nc2ccccc2n1-c1nc(N2CCOCC2)nc(N2CCC(Oc3ccc(OC(F)(F)F)cc3)CC2)n1` [1B3, 4-(4-(2-(difluoromethyl)-1H-benzo[d]imidazol-1-yl)-6-(4-(4-(trifluoromethoxy)phenoxy)piperidin-1-yl)-1,3,5-triazin-2-yl)morpholine], on PI3K alpha (setting [1]), the inhibition at 0.5 µM lay within 50 to 70%.

As to `Fc1ccc(N(c2ccc(Cl)cc2)C2CCN(c3nc(N4CCOCC4)nc(-n4c(C(F)F)nc5ccccc54)n3)CC2)cc1` [1B44, N-(4-chlorophenyl)-1-(4-(2-(difluoromethyl)-1H-benzo[d]imidazol-1-yl)-6-morpholino-1,3,5-triazin-2-yl)-N-(4-fluorophenyl)piperidin-4-amine], on PI3K alpha (setting [1]), the inhibition at 0.5 µM fell in the range of 50 to 70%. Take `Cc1ccc(OC2CCN(c3nc(N4CCOCC4)nc(N(C(=O)C(F)(F)F)c4ccccc4)n3)CC2)cc1` [1A8, 2,2,2-trifluoro-N-(4-morpholino-6-(4-(p-tolyloxy)piperidin-1-yl)-1,3,5-triazin-2-yl)-N-phenylacetamide]: the inhibition at 0.5 µM on PI3K alpha (setting [1]) and at PI3K alpha (setting [2]) was > 70% each time. Turning to `FC(F)(F)c1ccccc1OC1CCN(c2nc(N3CCOCC3)nc(N(c3ccccc3)c3ccccc3)n2)CC1` [1A19, 4-morpholino-N,N-diphenyl-6-(4-(2-(trifluoromethyl)phenoxy)piperidin-1-yl)-1,3,5-triazin-2-amine], the inhibition at 0.5 µM on PI3K alpha (setting [1]) and at PI3K alpha (setting [2]) was > 70% in each case. As to `Clc1ccccc1OC1CCN(c2nc(N3CCOCC3)nc(-n3cnc4ccccc43)n2)CC1` [1B19, 4-(4-(1H-benzo[d]imidazol-1-yl)-6-(4-(2-chlorophenoxy)piperidin-1yl)-1,3,5-triazin-2-yl)morpholine], the inhibition at 0.5 µM on PI3K alpha (setting [1]) and at PI3K alpha (setting [2]) was > 70% each time.

For `FC(F)(F)c1ccc(NC2CCN(c3nc(N4CCOCC4)nc(-n4cnc5ccccc54)n3)CC2)cc1` [1B35, 1-(4-(1H-benzo[d]imidazol-1-yl)-6-morpholino-1,3,5-triazin-2-yl)-N-(4-(trifluoromethyl)phenyl)piperidin-4-amine], on PI3K alpha (setting [1]), the inhibition at 0.5 µM fell in the range of 50 to 70%. Turning to `Fc1ccc(N(c2ccc(C(F)(F)F)cc2)C2CCN(c3nc(N4CCOCC4)nc(-n4c(C(F)F)nc5ccccc54)n3)CC2)cc1` [1B43, 1-(4-(2-(difluoromethyl)-1H-benzo[d]imidazol-1-yl)-6-morpholino-1,3,5-triazin-2-yl)-N-(4-fluorophenyl)-N-(4-(trifluoromethyl)phenyl)piperidin-4-amine], the inhibition at 0.5 µM at PI3K alpha (setting [1]) and at PI3K alpha (setting [2]) was > 70% in each case. `Cc1ccc(OC2CCN(c3nc(N(C)C)nc(N4CCOCC4)n3)CC2)cc1` [1A16, N,N-dimethyl-4-morpholino-6-(4-(p-tolyloxy)piperidin-1-yl)-1,3,5-triazin-2-amine]: the inhibition at 0.5 µM on PI3K alpha (setting [1]) lay in the range of 50 to 70%.

On to `Fc1ccccc1OC1CCN(c2nc(N3CCOCC3)nc(-n3cnc4ccccc43)n2)CC1` [1B18, 4-(4-(1H-benzo[d]imidazol-1-yl)-6-(4-(2-fluorophenoxy)piperidin-1-yl)-1,3,5-triazin-2-yl)morpholine], for which the inhibition at 0.5 µM at PI3K alpha (setting [1]) and on PI3K alpha (setting [2]) was > 70% each time. `FC(F)c1nc2ccccc2n1-c1nc(N2CCOCC2)nc(N2CCC(Oc3ccccc3C(F)(F)F)CC2)n1` [1B4, 4-(4-(2-(difluoromethyl)-1H-benzo[d]imidazol-1-yl)-6-(4-(2-(trifluoromethyl)phenoxy)piperidin-1-yl)-1,3,5-triazin-2-yl)morpholine]: the inhibition at 0.5 µM at PI3K alpha (setting [1]) and at PI3K alpha (setting [2]) was > 70% each time. Take `Fc1ccccc1NC1CCN(c2nc(N3CCOCC3)nc(-n3cnc4ccccc43)n2)CC1` [1B38, 1-(4-(1H-benzo[d]imidazol-1-yl)-6-morpholino-1,3,5-triazin-2-yl)-N-(2-fluorophenyl)piperidin-4-amine]: the inhibition at 0.5 µM on PI3K alpha (setting [1]) was 50 to 70%. Take `CN(c1ccccc1)c1nc(N2CCOCC2)nc(N2CCC(Oc3ccc(F)cc3)CC2)n1` [1A1, 4-(4-(4-fluorophenoxy)piperidin-1-yl)-N-methyl-6-morpholino-N-phenyl-1,3,5-triazin-2-amine]: the inhibition at 0.5 µM on PI3K alpha (setting [1]) was in the range of 50 to 70%. Turning to `COc1ccccc1NC1CCN(c2nc(N3CCOCC3)nc(-n3c(C(F)F)nc4ccccc43)n2)CC1` [1B28, 1-(4-(2-(difluoromethyl)-1H-benzo[d]imidazol-1-yl)-6-morpholino-1,3,5-triazin-2-yl)-N-(2-methoxyphenyl)piperidin-4-amine], the inhibition at 0.5 µM at PI3K alpha (setting [1]) and at PI3K alpha (setting [2]) was > 70% in each case. Besides, the values for the inhibition at 10 µM in the test on MCF-7 Cell line and in the test on PC-3 Cell line were > 50% and 30 to 50%, respectively. Consider `CN(c1ccccc1)c1nc(N2CCOCC2)nc(N2CCC(Oc3ccccc3F)CC2)n1` [1A2, 4-(4-(2-fluorophenoxy)piperidin-1-yl)-N-methyl-6-morpholino-N-phenyl-1,3,5-triazin-2-amine], for which the inhibition at 0.5 µM on PI3K alpha (setting [1]) fell in the range of 50 to 70%. For the molecule `CN(C(=O)C(F)(F)F)c1nc(N2CCOCC2)nc(N2CCC(Oc3ccccc3)CC2)n1` [1A11, 2,2,2-trifluoro-N-methyl-N-(4-morpholino-6-(4-phenoxypiperidin-1-yl)-1,3,5-triazin-2-yl)acetamide], the inhibition at 0.5 µM at PI3K alpha (setting [1]) fell in the range of 50 to 70%.

As for `Fc1ccc(N(c2ccc(Br)cc2)C2CCN(c3nc(N4CCOCC4)nc(-n4c(C(F)F)nc5ccccc54)n3)CC2)cc1` [1B42, N-(4-bromophenyl)-1-(4-(2-(difluoromethyl)-1H-benzo[d]imidazol-1-yl)-6-morpholino-1,3,5-triazin-2-yl)-N-(4-fluorophenyl)piperidin-4-amine], the inhibition at 0.5 µM on PI3K alpha (setting [1]) and on PI3K alpha (setting [2]) was > 70% in each case. `Cc1ccc(OC2CCN(c3nc(N4CCOCC4)nc(-n4c(C(F)F)nc5ccccc54)n3)CC2)cc1` [1B10, 4-(4-(2-(difluoromethyl)-1H-benzo[d]imidazol-1-yl)-6-(4-(p-tolyloxy)piperidin-1-yl)-1,3,5-triazin-2-yl)morpholine]: the inhibition at 0.5 µM on PI3K alpha (setting [1]) was 50 to 70%. Still for that read-out and setting: the same measure for `Fc1ccc(NC2CCN(c3nc(N4CCOCC4)nc(-n4c(C(F)F)nc5ccccc54)n3)CC2)cc1` [1B21, 1-(4-(2-(difluoromethyl)-1H-benzo[d]imidazol-1-yl)-6-morpholino-1,3,5-triazin-2-yl)-N-(4-fluorophenyl)piperidin-4-amine]: 50 to 70%; for `FC(F)c1nc2ccccc2n1-c1nc(N2CCOCC2)nc(N2CCC(Nc3ccccc3C(F)(F)F)CC2)n1` [1B29, 1-(4-(2-(difluoromethyl)-1H-benzo[d]imidazol-1-yl)-6-morpholino-1,3,5-triazin-2-yl)-N-(2-(trifluoromethyl)phenyl)piperidin-4-amine]: 50 to 70%. In the case of `O=C(N(C(=O)C(F)(F)F)c1nc(N2CCOCC2)nc(N2CCC(Oc3ccccc3F)CC2)n1)C(F)(F)F` [1A14, 2,2,2-trifluoro-N-(4-(4-(2-fluorophenoxy)piperidin-1-yl)-6-morpholino-1,3,5-triazin-2-yl)-N-(2,2,2-trifluoroacetyl)acetamide], the inhibition at 0.5 µM on PI3K alpha (setting [1]) and at PI3K alpha (setting [2]) was > 70% in each case.

Turning to `Cc1ccc(NC2CCN(c3nc(N4CCOCC4)nc(-n4cnc5cc(F)ccc54)n3)CC2)cc1` [1B33, 1-(4-(5-fluoro-1H-benzo[d]imidazol-1-yl)-6-morpholino-1,3,5-triazin-2-yl)-N-(p-tolyl)piperidin-4-amine], the inhibition at 0.5 µM at PI3K alpha (setting [1]) is 50 to 70%.
